From ChEMBL document CHEMBL5291721, “A preclinical secondary pharmacology resource illuminates target-adverse drug reaction associations of marketed drugs” (Nat Commun, 2023)

Key:
D(1A) dopamine receptor = D(1A) dopamine receptor (Homo sapiens, UniProt P21728); assay type: functional, cell-based
Estrogen receptor = target: T1, Estrogen receptor (Homo sapiens, UniProt P03372); assay type: functional
T1 sequence (P03372 whole entry): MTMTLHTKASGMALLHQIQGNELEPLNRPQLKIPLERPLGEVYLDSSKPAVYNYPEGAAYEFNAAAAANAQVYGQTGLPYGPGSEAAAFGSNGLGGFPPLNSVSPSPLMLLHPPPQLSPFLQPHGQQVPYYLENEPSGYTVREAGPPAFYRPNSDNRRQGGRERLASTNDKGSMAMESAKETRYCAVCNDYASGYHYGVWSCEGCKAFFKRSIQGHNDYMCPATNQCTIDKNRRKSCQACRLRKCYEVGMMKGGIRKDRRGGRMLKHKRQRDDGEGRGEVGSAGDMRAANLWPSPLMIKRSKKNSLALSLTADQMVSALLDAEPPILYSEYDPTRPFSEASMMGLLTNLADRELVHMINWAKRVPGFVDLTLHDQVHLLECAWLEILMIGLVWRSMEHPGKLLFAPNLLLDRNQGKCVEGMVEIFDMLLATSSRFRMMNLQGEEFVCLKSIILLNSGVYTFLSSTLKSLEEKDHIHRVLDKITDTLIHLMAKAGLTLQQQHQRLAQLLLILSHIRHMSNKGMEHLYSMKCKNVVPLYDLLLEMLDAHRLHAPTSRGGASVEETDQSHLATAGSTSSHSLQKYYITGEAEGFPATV

[1] = target: T2, Gamma-aminobutyric acid receptor subunit alpha-1/alpha-2/beta-2/gamma-2 (Homo sapiens, UniProt P14867+P18507+P47869+P47870); assay type: functional, cell-based
Glucocorticoid receptor = target: T3, Glucocorticoid receptor (Homo sapiens, UniProt P04150); assay type: functional
T3 sequence (P04150 whole entry): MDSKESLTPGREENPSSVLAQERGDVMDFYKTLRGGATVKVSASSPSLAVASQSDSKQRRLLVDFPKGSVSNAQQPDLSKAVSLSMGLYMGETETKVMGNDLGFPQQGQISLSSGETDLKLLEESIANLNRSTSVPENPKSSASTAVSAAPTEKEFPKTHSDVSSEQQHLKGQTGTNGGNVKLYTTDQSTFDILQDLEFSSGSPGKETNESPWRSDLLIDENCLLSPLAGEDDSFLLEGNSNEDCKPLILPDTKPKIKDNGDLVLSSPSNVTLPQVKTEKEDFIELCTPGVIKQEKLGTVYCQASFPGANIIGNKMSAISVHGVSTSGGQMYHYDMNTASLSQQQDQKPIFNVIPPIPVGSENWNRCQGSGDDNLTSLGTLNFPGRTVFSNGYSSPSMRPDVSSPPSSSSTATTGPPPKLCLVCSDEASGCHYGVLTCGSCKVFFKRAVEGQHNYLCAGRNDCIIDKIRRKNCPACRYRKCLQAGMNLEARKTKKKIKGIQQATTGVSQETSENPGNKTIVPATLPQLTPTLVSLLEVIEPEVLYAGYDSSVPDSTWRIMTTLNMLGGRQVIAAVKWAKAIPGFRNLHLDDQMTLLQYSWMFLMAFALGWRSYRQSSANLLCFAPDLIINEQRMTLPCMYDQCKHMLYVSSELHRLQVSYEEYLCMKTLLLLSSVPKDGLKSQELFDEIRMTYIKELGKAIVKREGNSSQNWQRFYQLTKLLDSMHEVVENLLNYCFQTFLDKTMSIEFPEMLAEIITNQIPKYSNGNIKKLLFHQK

[2] = target: Vascular endothelial growth factor receptor 2 (Homo sapiens, UniProt P35968); assay type: functional
[3] = target: T4, Endothelin receptor type B (Homo sapiens, UniProt P24530)
T4 sequence (P24530 whole entry): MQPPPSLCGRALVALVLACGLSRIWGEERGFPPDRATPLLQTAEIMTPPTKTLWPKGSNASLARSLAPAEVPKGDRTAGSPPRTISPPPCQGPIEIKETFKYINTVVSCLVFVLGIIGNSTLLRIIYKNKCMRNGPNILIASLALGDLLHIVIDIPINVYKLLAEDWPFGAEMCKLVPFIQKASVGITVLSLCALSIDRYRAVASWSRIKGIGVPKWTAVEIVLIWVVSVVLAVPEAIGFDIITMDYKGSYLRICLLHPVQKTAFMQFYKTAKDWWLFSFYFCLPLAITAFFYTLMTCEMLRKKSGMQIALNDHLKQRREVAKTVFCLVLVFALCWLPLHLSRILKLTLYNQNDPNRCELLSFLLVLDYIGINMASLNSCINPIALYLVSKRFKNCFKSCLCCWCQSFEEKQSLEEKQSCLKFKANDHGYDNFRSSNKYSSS

[4] = target: T5, Gastric inhibitory polypeptide receptor (Homo sapiens, UniProt P48546)
T5 sequence (P48546 whole entry): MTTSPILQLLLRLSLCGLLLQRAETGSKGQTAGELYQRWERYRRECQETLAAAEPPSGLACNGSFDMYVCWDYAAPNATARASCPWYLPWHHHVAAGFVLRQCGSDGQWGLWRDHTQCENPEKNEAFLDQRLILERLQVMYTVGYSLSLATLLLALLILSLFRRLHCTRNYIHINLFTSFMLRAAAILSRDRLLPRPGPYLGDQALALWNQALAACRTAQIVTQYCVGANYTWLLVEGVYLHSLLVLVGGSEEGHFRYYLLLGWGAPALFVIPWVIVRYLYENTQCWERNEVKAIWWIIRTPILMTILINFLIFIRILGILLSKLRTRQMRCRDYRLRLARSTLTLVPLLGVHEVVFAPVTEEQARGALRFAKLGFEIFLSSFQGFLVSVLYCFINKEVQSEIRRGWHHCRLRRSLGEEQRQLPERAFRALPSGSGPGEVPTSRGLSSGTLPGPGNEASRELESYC

Histamine H2 receptor = Histamine H2 receptor (Homo sapiens, UniProt P25021)
[5] = target: T2, Gamma-aminobutyric acid receptor subunit alpha-1/alpha-2/beta-2/gamma-2; assay type: protein-complex assay
Note: assay procedure not described here.

Histamine H2 receptor, sequence (P25021 whole entry): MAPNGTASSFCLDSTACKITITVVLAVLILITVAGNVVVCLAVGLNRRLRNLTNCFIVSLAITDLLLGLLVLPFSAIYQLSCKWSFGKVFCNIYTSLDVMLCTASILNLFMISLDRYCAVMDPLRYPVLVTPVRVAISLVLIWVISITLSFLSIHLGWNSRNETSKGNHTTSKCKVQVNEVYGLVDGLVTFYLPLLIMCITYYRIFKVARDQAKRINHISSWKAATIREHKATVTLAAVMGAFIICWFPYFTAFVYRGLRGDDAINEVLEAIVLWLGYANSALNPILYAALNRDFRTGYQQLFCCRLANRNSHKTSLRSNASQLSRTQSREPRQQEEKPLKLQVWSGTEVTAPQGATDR
Vascular endothelial growth factor receptor 2, sequence (P35968 whole entry): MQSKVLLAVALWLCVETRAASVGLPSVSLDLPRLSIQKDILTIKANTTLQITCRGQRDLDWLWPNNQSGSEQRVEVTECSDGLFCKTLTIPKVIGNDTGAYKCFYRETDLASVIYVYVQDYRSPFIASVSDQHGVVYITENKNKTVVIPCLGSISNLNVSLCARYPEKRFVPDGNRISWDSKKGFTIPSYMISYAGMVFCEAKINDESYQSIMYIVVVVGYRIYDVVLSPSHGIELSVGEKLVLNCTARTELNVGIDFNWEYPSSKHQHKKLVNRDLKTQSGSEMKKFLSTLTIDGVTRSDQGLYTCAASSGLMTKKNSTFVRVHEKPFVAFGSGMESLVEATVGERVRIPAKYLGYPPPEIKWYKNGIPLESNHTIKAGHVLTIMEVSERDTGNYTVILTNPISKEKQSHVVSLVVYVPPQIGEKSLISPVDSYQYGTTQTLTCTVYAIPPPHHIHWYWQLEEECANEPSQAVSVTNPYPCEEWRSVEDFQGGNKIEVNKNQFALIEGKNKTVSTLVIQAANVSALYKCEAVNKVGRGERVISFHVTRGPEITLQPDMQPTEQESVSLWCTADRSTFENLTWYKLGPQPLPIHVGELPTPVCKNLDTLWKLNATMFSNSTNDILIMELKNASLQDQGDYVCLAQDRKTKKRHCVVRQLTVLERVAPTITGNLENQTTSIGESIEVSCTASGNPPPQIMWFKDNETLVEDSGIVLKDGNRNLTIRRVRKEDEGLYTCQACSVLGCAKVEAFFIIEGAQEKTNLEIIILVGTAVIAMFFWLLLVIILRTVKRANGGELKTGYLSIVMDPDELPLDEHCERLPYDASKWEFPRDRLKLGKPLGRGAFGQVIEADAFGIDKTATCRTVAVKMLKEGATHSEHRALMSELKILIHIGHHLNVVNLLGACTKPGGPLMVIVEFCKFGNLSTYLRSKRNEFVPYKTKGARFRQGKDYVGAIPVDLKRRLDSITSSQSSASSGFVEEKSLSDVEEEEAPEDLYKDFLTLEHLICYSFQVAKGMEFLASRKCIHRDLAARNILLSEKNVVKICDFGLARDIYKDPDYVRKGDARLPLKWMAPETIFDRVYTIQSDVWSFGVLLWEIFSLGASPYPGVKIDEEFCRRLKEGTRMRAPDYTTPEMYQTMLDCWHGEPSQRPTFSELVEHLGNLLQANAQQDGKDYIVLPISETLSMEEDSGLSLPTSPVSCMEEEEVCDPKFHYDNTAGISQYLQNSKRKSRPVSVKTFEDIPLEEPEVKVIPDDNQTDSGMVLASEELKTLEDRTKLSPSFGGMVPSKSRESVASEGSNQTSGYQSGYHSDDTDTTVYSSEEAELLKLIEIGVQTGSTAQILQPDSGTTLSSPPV
T2 sequence (P14867 whole entry): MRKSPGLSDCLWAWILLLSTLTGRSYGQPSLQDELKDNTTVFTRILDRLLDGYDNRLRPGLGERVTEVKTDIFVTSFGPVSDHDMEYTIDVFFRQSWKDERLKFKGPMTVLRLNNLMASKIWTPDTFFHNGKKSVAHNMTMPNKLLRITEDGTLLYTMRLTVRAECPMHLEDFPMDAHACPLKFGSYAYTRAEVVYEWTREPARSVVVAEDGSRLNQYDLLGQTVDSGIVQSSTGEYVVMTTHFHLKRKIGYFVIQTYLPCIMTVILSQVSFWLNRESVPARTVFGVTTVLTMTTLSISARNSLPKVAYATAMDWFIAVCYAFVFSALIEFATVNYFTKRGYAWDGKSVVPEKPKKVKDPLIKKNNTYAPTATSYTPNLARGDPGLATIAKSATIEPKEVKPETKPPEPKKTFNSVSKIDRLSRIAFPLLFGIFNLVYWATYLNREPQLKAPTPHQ
T2 sequence (P47870 whole entry): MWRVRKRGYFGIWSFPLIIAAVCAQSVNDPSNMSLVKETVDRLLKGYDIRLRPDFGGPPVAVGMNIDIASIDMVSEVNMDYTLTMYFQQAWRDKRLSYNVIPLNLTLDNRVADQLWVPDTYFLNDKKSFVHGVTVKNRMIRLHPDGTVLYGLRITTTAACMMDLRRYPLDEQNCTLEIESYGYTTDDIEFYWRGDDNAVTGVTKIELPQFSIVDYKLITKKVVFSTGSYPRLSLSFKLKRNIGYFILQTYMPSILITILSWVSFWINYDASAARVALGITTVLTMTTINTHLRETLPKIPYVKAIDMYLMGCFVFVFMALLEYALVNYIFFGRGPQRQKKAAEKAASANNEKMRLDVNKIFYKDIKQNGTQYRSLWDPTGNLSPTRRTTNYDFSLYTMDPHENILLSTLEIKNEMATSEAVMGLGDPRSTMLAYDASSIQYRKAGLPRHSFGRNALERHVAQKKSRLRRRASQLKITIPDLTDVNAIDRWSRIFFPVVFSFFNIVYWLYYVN
T2 sequence (P18507 whole entry): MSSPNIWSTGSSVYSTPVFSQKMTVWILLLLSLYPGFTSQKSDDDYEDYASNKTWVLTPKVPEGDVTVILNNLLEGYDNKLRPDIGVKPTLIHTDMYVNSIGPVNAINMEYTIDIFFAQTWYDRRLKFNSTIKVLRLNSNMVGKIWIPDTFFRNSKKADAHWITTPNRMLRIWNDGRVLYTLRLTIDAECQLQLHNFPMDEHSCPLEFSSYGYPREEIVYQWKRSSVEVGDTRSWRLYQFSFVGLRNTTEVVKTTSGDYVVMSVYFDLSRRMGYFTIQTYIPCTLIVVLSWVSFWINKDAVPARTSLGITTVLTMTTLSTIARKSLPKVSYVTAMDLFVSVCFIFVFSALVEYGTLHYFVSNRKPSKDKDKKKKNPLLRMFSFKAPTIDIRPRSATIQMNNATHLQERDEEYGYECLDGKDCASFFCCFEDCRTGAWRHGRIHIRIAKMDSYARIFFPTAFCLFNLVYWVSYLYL
T2 sequence (P47869 whole entry): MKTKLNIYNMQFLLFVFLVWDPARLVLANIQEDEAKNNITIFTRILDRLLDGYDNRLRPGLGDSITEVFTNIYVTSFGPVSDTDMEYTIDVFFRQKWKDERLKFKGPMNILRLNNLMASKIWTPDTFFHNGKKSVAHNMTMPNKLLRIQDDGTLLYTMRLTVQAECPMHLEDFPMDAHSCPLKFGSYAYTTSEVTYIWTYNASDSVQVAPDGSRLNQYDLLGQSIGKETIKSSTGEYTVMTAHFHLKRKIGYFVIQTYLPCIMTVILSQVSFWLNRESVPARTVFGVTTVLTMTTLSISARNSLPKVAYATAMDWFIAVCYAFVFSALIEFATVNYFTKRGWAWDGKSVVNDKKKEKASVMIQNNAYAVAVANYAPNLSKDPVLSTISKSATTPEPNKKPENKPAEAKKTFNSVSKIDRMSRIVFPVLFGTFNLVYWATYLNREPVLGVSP
D(1A) dopamine receptor, sequence (P21728 whole entry): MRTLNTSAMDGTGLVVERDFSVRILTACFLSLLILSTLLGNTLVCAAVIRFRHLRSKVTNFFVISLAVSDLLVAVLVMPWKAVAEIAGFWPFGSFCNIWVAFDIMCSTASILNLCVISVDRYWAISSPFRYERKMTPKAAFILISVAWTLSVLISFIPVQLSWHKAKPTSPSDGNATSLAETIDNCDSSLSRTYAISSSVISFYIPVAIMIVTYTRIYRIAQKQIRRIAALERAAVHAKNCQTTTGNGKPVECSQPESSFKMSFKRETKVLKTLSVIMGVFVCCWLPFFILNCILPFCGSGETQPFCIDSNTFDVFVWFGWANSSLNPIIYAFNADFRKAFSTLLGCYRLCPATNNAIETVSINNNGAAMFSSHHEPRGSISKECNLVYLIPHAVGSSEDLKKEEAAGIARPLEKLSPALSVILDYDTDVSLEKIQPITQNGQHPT

SMILES | AC50 (D(1A) dopamine receptor) | AC50 (Estrogen receptor) | AC50 [1] | AC50 (Glucocorticoid receptor) | AC50 [2] | AC50 [3] | AC50 [4] | AC50 (Histamine H2 receptor) | AC50 [5]
C1CCC(C(CC2CCCCN2)C2CCCCC2)CC1 (stereo unspecified) [PERHEXILINE] | > 30 µM | > 30 µM | > 30 µM | > 30 µM | > 30 µM |  |  |  | 
Cn1nnc2c(C(N)=O)ncn2c1=O [TEMOZOLOMIDE] | > 30 µM | > 30 µM | > 30 µM |  | > 30 µM | > 30 µM | > 30 µM | > 10 µM | 
CNC1Cc2ccccc2N(C)c2ccccc21 (stereo unspecified) [METAPRAMINE] | > 30 µM | > 30 µM | > 30 µM | > 30 µM | > 30 µM |  |  |  | 
Cc1c(C(=O)NN2CCCCC2)nn(-c2ccc(Cl)cc2Cl)c1-c1ccc(Cl)cc1 [RIMONABANT] | 26 µM | > 30 µM | > 30 µM | > 30 µM | > 30 µM | > 30 µM | > 30 µM | 10.9 µM | 
c1ccc([C@H]2CN3CCSC3=N2)cc1 [LEVAMISOLE] | > 30 µM | > 30 µM | > 30 µM | > 30 µM | > 30 µM |  |  |  | 
CN(C)CCC=C1c2ccccc2C(C)(C)c2ccccc21 | 4.5 µM | > 30 µM | > 30 µM | > 30 µM | > 30 µM |  |  |  | 
C[C@H]1CNCCc2ccc(Cl)cc21 [LORCASERIN] | > 30 µM | > 30 µM | > 30 µM | > 30 µM | > 30 µM |  |  |  | 
N[C@@H]1[C@H]2CN(c3nc4c(cc3F)c(=O)c(C(=O)O)cn4-c3ccc(F)cc3F)C[C@@H]12 [TROVAFLOXACIN] | > 30 µM | > 30 µM | > 30 µM | > 30 µM |  |  |  |  | 
COc1ccc(CC(C)(C)NC[C@H](O)c2cc(O)cc3c2OCC(=O)N3)cc1 [OLODATEROL] | > 30 µM | > 30 µM | > 30 µM | > 30 µM | > 30 µM |  |  |  | 
CCCN1C[C@H](CSC)C[C@@H]2c3cccc4[nH]cc(c34)C[C@H]21 [PERGOLIDE] |  | > 30 µM | > 30 µM | > 30 µM | > 30 µM | > 30 µM | > 30 µM | 3.77 µM | 
c1cnc(N2CCN(Cc3ccc4c(c3)OCO4)CC2)nc1 [PIRIBEDIL] | > 30 µM | > 30 µM | > 30 µM | > 30 µM | > 30 µM |  |  |  | 
O=C(OCC(O)CO)c1ccccc1Nc1ccnc2cc(Cl)ccc12 (stereo unspecified) [GLAFENINE] | > 30 µM | > 10 µM | > 30 µM |  | 13 µM |  |  |  | > 30 µM
